Results published in patent US9572830B2, “Uridine effects on dopamine release” (MASSACHUSETTS INSTITUTE OF TECHNOLOGY, priority 2004, dated 2017).

Experiments:
[1] = test system: neurotransmitter release in right corpus striatum; experiment: Microdialysis of right corpus striatum of UMP-fed rats before, during and after potassium depolarization; format: in vivo, rat; conditions: striatal microdialysate
Procedure: (§1) Retired breeder rats consumed a diet containing normal chow (Harlan Tech Lad, Madison, Wis.) supplemented with or without uridine 5′-monophosphate (UMP) (2.5%, w/w)—at a final concentration of 500 mg/kg/day, for a period of six weeks. Microdialysis was performed with cannulas implanted directly within the right corpus striatum of the control and treated rats. Cannulas were implanted on day 1, and samples were collected on days 3 and 4. Micro-dialysates (22.5 microliter, collected over 15 minutes) were assayed for dopamine (DA), 3,4-dihydroxyphenylacetic acid (DOPAC), homovanillic acid (HVA), 5-hydroxy-tryptamine (5-HT) and 5-hydroxyindoleacetic acid (5-HIAA). Real-time neurotransmitter level measurements were taken on samples drawn prior to and following depolarization of the neuron membrane via local application of […] potassium chloride (KCl) solution. Animals were then sacrificed, and striatum, hippocampus and temporal cortex were assayed for DA, DOPAC, HVA, 5HT, 5HIAA, DNA, protein and phosphatidyl choline (PC) content. DA and metabolites in dialysates and tissue samples were determined using an ESA Coulochem 11 5100A detector (E1=−175 mV; E2=+325 mV; Eguard=350 mV) with an ESA Microdialysis Cell (model 5014B, ESA, North Chelmsford, Mass.). The mobile phase (MD-TM, ESA) consisted of 75 mM NaH2PO4, 1.7 mM 1-octanesulfonic acid, 100 ?l/L Triethylamine, 25 ?M EDTA, 10% acetonitrile, pH 3.0. The flow rate was 0.4 mL/min. The column (ESA MD 150, 3×150 mm, 3 ?m, 120 Å) was kept in a 40° C. column oven. Samples were injected to HPLC by an Alltech 580 autosampler (Alltech, Deerfield, Ill.) and maintained to 4° C. with a cooling tray during analysis. Data were captured by Alltech AllChrom™ data system, and analyzed with AllChrom plus™ software. A timeline program, which could change the detection gain during sample separation and detection, was used to make it possible to get low DA and high metabolites concentration data in dialysate through one injection. Real-time neurotransmitter levels were assayed by measuring the faradaic current at the respective oxidation potentials with a carbon fiber electrode inserted through the cannula.

[2] = test system: striatum; experiment: Total tissue content of DA, 5-HT and metabolites in striatum after sacrifice; format: in vivo, rat; conditions: UMP-fed rats vs control
Procedure: as §1, with “injection.” for “injection. Real-time neurotransmitter levels were assayed by measuring the faradaic current at the respective oxidation potentials with a carbon fiber electrode inserted through the cannula.”

[3] = UMP-fed rat vs control, before stimulation
[4] = UMP-fed rat vs control, during and after stimulation
[5] = rats fed UMP 2.5% w/w in chow (500 mg/kg/day) for six weeks, depolarization by local 100 nm KCl, vs control rat
[6] = striatum and striatal extracellular fluid (ECF)

## O=c1ccn([C@@H]2O[C@H](COP(=O)(O)O)[C@@H](O)[C@H]2O)c(=O)[nH]1 [UMP, uridine 5′-monophosphate]
[1]; [3]
  basal level of 5-HIAA: lower basal levels
  basal level of DOPAC: lower basal levels
  basal level of HVA: lower basal levels
[1]; [4]
  release of 5-HIAA on potassium stimulation: increased, although by a smaller margin than DA and 5-HT, after but not during stimulation
  release of DOPAC on potassium stimulation: increased, although by a smaller margin than DA and 5-HT, after but not during stimulation
  release of HVA on potassium stimulation: increased, although by a smaller margin than DA and 5-HT, after but not during stimulation
[1]; [5]
  release of 5-HT during and after depolarization: enhanced
  release of DA during and after depolarization: enhanced
[1]; rats fed UMP 2.5% w/w in chow (500 mg/kg/day) for six weeks, depolarization by local 100 nm KCl, vs control rat, listed as uridine monophosphate
  release of DA during and after depolarization: significantly enhanced
[2]; striatal tissue
  total level of 5-HT in the striatum: did not affect
  total level of DA in the striatum: did not affect
[2]; [6]
  total striatal level of 5-HIAA: slightly reduced
  total striatal level of DOPAC: slightly reduced
  total striatal level of HVA: slightly reduced
[2]; summary statement
  total striatal levels of DA metabolites: decreased
